Assay results from PubChem BioAssay (NCI).
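These data come from cells grown in 96-well plates and exposed to compound for 48 hours at five concentrations. GI50 marks 50% less growth. TGI: total growth inhibition.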

Experiments:
Assay in all cases: DTP human tumour cell line panel, 48 h
SNB-19 CNS = tested on: SNB-19 CNS
HCC-2998 colon = tested on: HCC-2998 colon
IGROV1 ovarian = tested on: IGROV1 ovarian
EKVX NSCLC = tested on: EKVX NSCLC
SN12C renal = tested on: SN12C renal
A549 NSCLC = tested on: A549 NSCLC
SK-MEL-5 melanoma = tested on: SK-MEL-5 melanoma
SF-539 CNS = tested on: SF-539 CNS
BT-549 breast = tested on: BT-549 breast
DU-145 prostate = tested on: DU-145 prostate

| Structure (SMILES) | TGI (SNB-19 CNS) [µM] | TGI (HCC-2998 colon) [µM] | TGI (IGROV1 ovarian) [µM] | TGI (EKVX NSCLC) [µM] | TGI (SN12C renal) [µM] | TGI (A549 NSCLC) [µM] | TGI (SK-MEL-5 melanoma) [µM] | TGI (SF-539 CNS) [µM] | GI50 (SNB-19 CNS) [µM] | GI50 (HCC-2998 colon) [µM] | GI50 (IGROV1 ovarian) [µM] | GI50 (EKVX NSCLC) [µM] | GI50 (SN12C renal) [µM] | GI50 (A549 NSCLC) [µM] | GI50 (SK-MEL-5 melanoma) [µM] | GI50 (BT-549 breast) [µM] | TGI (BT-549 breast) [µM] | GI50 (SF-539 CNS) [µM] | GI50 (DU-145 prostate) [µM] | TGI (DU-145 prostate) [µM] |
| --- | --- | --- | --- | --- | --- | --- | --- | --- | --- | --- | --- | --- | --- | --- | --- | --- | --- | --- | --- | --- |
| NNC(=O)CC(=O)Nc1ccccc1F | > 100 | > 100 | > 100 | > 100 | > 100 | > 100 | > 100 | > 100 |  |  |  |  |  |  |  |  |  |  |  |  |
| COc1cc2c(cc1OCCCCC(=O)Nc1ccc(-c3nc4ccccc4s3)cc1)N=C[C@@H]1CCCN1C2=O | 11.2 | 3.23 | 2.27 | 5.52 | 9.72 | 11.2 | 3.17 | 3.38 | 2.68 | 1.58 | 0.695 | 2.45 | 2.81 | 3.38 | 1.76 | 1.13 | 2.36 | 1.59 |  |  |
| CC(=O)OCCC/C(=C\c1ccc2ccccc2c1)[N+](=O)[O-] | 3.28 | 3.32 | 3.98 |  | 3.32 | 31.2 | 3.29 | 3.32 | 1.77 | 1.73 | 1.89 |  | 1.54 | 3.41 | 1.72 | 1.72 | 3.42 | 1.76 | 1.65 | 3.4 |
| Cn1c(=O)c(C(c2ccccc2)c2c(O)c3ccccc3n(C)c2=O)c(O)c2ccccc21 | > 100 | > 100 | > 100 | > 100 | > 100 | > 100 | > 100 | > 100 |  |  |  |  |  |  |  |  |  |  |  |  |
| CC1SC2=NC3=C(c4ccccc4C3=O)C(c3ccc(Br)cc3)N2C1=O (configuration not stated) | > 100 | > 100 | > 100 | > 100 | > 100 | > 100 | > 100 |  |  |  |  |  |  |  |  |  |  |  |  |  |
| COc1ccc(/C=C/c2nc(N3CCOCC3)c3cc(F)c(F)cc3n2)cc1OC | > 100 | > 100 | > 100 |  | > 100 | > 100 | 2.81 | > 100 | 5.2 | 7.49 | 47.4 |  | 5.36 | 5.87 | 1.18 | 2.83 | 19.8 | > 100 | 8.79 | > 100 |
| CC1=C(C(=O)Nc2ccccc2C)C(c2ccc(N(C)C)cc2)C(C(=O)Nc2ccccc2C)=C(C)N1 | > 100 | > 100 | > 100 | > 100 | > 100 | > 100 | > 100 | > 100 |  |  |  |  |  |  |  |  |  |  |  |  |
| COC(=O)c1[nH]nc(-c2ccccc2)c1N1CCCCC1 | > 100 |  | > 100 | 73.3 | 41.5 | > 100 | > 100 | 57.4 | 36.2 |  | 60.8 | 23.7 | 15.5 | 43.6 | 34 | 43.9 | > 100 | 20.6 | 30.5 | > 100 |
| COC1=NN2C(OC)(c3ccccc3)c3c(-c4ccccc4)sc(-c4ccccc4)c3C2(c2ccccc2)S1 (configuration not stated) | > 100 | > 100 | > 100 |  | > 100 | > 100 |  | > 100 |  |  |  |  |  |  |  |  |  |  |  |  |
| COc1ccc(-c2cc(-c3ccccc3)c(C#N)c(=O)[nH]2)cc1 | > 100 | > 100 | > 100 | > 100 | > 100 | > 100 | > 100 | > 100 |  |  |  |  |  |  |  |  |  |  |  |  |
| Cc1c(N2C(=O)/C(=C\c3ccc(O)cc3)N=C2c2ccccc2)c(=O)n(-c2ccccc2)n1C | > 100 | > 100 | > 100 | > 100 | > 100 | > 100 | > 100 | > 100 | > 100 | > 100 | > 100 | > 100 | > 100 | > 100 | > 100 |  |  | > 100 | > 100 | > 100 |
| COc1cc(C)c(C(=O)/C=C/c2cc(OC)c(O)c(OC)c2)cc1O | 44.5 | 30.5 | 85 | > 100 |  | > 100 | 33.6 | 93.1 |  |  |  |  |  |  |  |  |  |  |  |  |
| COc1cc(C2c3cc4c(cc3C3OC(=O)C2C3CO)OCO4)cc(OC)c1OC (configuration not stated) | > 100 | 0.0899 | > 100 |  | > 100 | > 100 | 0.047 | 0.0668 |  | 0.0297 | 0.035 |  | 0.0457 | 0.0294 | 0.0176 | 0.0334 | 9.27 | < 0.0122 | 0.0285 |  |
| CC(C)O/C=C1\C(=O)C2(SCCS2)[C@H]2CCCC[C@@H]12 | > 100 | > 100 | > 100 |  | > 100 | > 100 | > 100 | > 100 |  |  |  |  |  |  |  |  |  |  |  |  |
| CCC[CH2][Sn]1([CH2]CCC)[O]C(=O)C[S]1 | 2.5 | 3.97 | 4.16 | 6.53 | 5.09 | 23.5 | 3 | 3.43 | 1.22 | 1.83 | 1.86 | 2.46 | 1.91 | 8.9 | 1.44 |  |  | 1.64 |  |  |
| CC(=O)OC1CCC2(C)C(CCC3C2CCC2(C)C(C4=CC(=O)OC4)CCC32)C1 (configuration not stated) | 38.4 | > 100 | 53.2 |  | 99.1 | 19.7 | 6.58 | 9.15 | 8.49 | 23.8 | 16.9 |  | 11.1 | 3.05 | 2.37 | 4.19 | 25.4 | 2.68 | 14.7 | 40.3 |
| O=C1Cc2ccccc2N1/N=C\c1ccc(O)cc1 | > 100 | > 100 | > 100 | > 100 | > 100 | > 100 | > 100 | > 100 |  |  |  |  |  |  |  |  |  |  |  |  |
